Reference: US7547513B2, “Mutants of deoxycytidine kinase having extended enzymatic activity” (priority 2001, dated 2009)
In brackets after ≈: the same amount, converted by molar mass.

What was measured:
[1] = tested on: Escherichia coli β7336 Δdeo tdk cdd::Tn10 pSUDCK2 (dck:D133E); format: cell-based; details: strain β7336, dck allele D133E; 18 h 37° C., MS medium + IPTG
Protocol: (§1) The culture was then diluted 100 times in the same medium supplemented with IPTG and distributed on 96-well microplates in a final volume of 100 μl in a series of dilutions from to 2 to 2 nucleotide analogues. Each analogue was tested twice.
(§2) The toxicity of nucleoside analogues, deviating either by the sugar or by the base, was evaluated in strains of genotype Δdeo tdk cdd expressing on a plasmid the different dckH alleles, wild-type allele, D133E, R104Q and double mutant.
(§3) The minimum inhibitory concentrations, expressed in microM, were determined as indicated in the section Materials and Methods.

[2] = tested on: Escherichia coli β7344 Δdeo tdk cdd::Tn10 (dckH none, amkG T39A); assay: microbe, parasite or virus in culture; format: cell-based; details: strain β7344, dckH none, amkG T39A
Protocol: (§4) The culture was then diluted 100 times in the same medium supplemented with IPTG and distributed on 96-well microplates in a final volume of 100 μl in a series of dilutions from to 2 to 2 nucleotide analogues. Each analogue was tested twice. After incubation for 18 hours at 37° C. with stirring, the MIC was determined as corresponding to the lowest analogue concentration for which no turbidity was detectable.
(§5) We jointly expressed, within the genetic context Δdeo tdk cdd each of the four alleles of dckH with each of the two wt and T39A alleles of amkG, and tested the toxicity of the different nucleoside analogues already tested previously (Table 4 below).
as §3

[3] = tested on: Escherichia coli β7343 Δdeo tdk cdd::Tn10 (dckH D133E R104Q, amkG wt); assay: microbe, parasite or virus in culture; format: cell-based; details: strain β7343, dckH D133E R104Q, amkG wt
Protocol: as §4, §5, §3

[4] = tested on: Escherichia coli β7342 Δdeo tdk cdd::Tn10 (dckH R104Q, amkG wt); assay: microbe, parasite or virus in culture; format: cell-based; details: strain β7342, dckH R104Q, amkG wt
Protocol: as §4, §5, §3

[5] = tested on: Escherichia coli β7348 Δdeo tdk cdd::Tn10 (dckH D133E R104Q, amkG T39A); assay: microbe, parasite or virus in culture; format: cell-based; details: strain β7348, dckH D133E R104Q, amkG T39A
Protocol: as §4, §5, §3

[6] = tested on: Escherichia coli β7346 Δdeo tdk cdd::Tn10 (dckH D133E, amkG T39A); assay: microbe, parasite or virus in culture; format: cell-based; details: strain β7346, dckH D133E, amkG T39A
Protocol: as §4, §5, §3

[7] = tested on: Escherichia coli β7340 Δdeo tdk cdd::Tn10 (dckH wt, amkG wt); assay: microbe, parasite or virus in culture; format: cell-based; details: strain β7340, dckH wt, amkG wt
Protocol: as §4, §5, §3

[8] = tested on: Escherichia coli β7339 Δdeo tdk cdd::Tn10 (dckH none, amkG wt); assay: microbe, parasite or virus in culture; format: cell-based; details: strain β7339, dckH none, amkG wt
Protocol: as §4, §5, §3

[9] = tested on: Escherichia coli β7341 Δdeo tdk cdd::Tn10 (dckH D133E, amkG wt); assay: microbe, parasite or virus in culture; format: cell-based; details: strain β7341, dckH D133E, amkG wt
Protocol: as §4, §5, §3

[10] = tested on: Escherichia coli β7345 Δdeo tdk cdd::Tn10 (dckH wt, amkG T39A); assay: microbe, parasite or virus in culture; format: cell-based; details: strain β7345, dckH wt, amkG T39A
Protocol: as §4, §5, §3

[11] = tested on: Escherichia coli β7347 Δdeo tdk cdd::Tn10 (dckH R104Q, amkG T39A); assay: microbe, parasite or virus in culture; format: cell-based; details: strain β7347, dckH R104Q, amkG T39A
Protocol: as §4, §5, §3

[12] = tested on: Escherichia coli β7334 Δdeo tdk cdd::Tn10 pSUTrc (dck allele: none); format: cell-based; details: strain β7334, dck allele none; 18 h 37° C., MS medium + IPTG
Protocol: as §4, §2, §3

[13] = tested on: Escherichia coli β7338 Δdeo tdk cdd::Tn10 pSUDCK4 (dck:D133E-R104Q); format: cell-based; details: strain β7338, dck allele D133E R104Q; 18 h 37° C., MS medium + IPTG
Protocol: as §4, §2, §3

[14] = tested on: bacteria of genotype Δdeo tdk p::dckH+ (β7134 cells); assay: Selection of the DCK mutants in vivo (mutagenesis of dck gene by promutagenic nucleosides); format: cell-based, Escherichia coli
Protocol: Selection of the DCK mutants in vivo: a 12-hour culture of the β7134 cells in MS medium supplemented with 50 mg/l of carbenicillin was diluted 100 times in the same medium and cultured with aeration until turbidity of 0.100 (600 nm) was reached. The culture was then diluted 25 times in the same medium with or without IPTG and supplemented with variable concentrations (5 to 30 μM) of the promutagenic nucleoside analogues disoG and disoA then cultured with aeration for 18 hours. The cells were rinsed then plated on MH dishes supplemented with trimethoprim, thymidine and IPTG. Colonies appeared after incubation for 36 hours at 37° C. No colony was obtained in the absence of nucleoside analogue.
We took advantage of the conditional mutating property of DCK in the presence of promutagenic nucleoside analogues in order to subject its own dck gene to an episode of mutagenesis in vivo. Thus, bacteria of genotype Δdeo tdk p::dckH+ were exposed either to 2′-deoxy-iso-adenosine (disoA) or to 2′ deoxy-iso-guanosine (disoG), then incubated on solid rich medium in the presence of trimethoprim and thymidine. Colonies appeared following the administration of the two compounds at a frequency of the order of 10^−8. No colony survived in the absence of promutagenic nucleoside.
These alleles are designated dckH*. A plasmid combining the two mutations in the same allele, dckH**, was constructed and introduced into the strain β7117 of genotype Δdeo tdk. This allowed the complementation of the tdk mutation, thus also expressing a thymidine kinase activity. The different alleles selected are itemized in Table 2 below.

[15] = tested on: Escherichia coli β7337 Δdeo tdk cdd::Tn10 pSUDCK3 (dck:R104Q); format: cell-based; details: strain β7337, dck allele R104Q; 18 h 37° C., MS medium + IPTG
Protocol: as §1, §2, §3

SMILES | minimum inhibitory concentration (MIC) [1] | minimum inhibitory concentration (MIC) [2] | minimum inhibitory concentration (MIC) [3] | minimum inhibitory concentration (MIC) [4] | minimum inhibitory concentration (MIC) [5] | minimum inhibitory concentration (MIC) [6] | minimum inhibitory concentration (MIC) [7] | minimum inhibitory concentration (MIC) [8] | minimum inhibitory concentration (MIC) [9] | minimum inhibitory concentration (MIC) [10] | minimum inhibitory concentration (MIC) [11] | minimum inhibitory concentration (MIC) [12] | minimum inhibitory concentration (MIC) [13] | frequency of colonies on solid rich medium with trimethoprim and thymidine after exposure ([14]; no colony in the absence of promutagenic nucleoside) | Frequency of mutation detected C → A, codon 133 GAC, Asp → Glu ([14]; sequenced mutant plasmids obtained independently) | minimum inhibitory concentration (MIC) [15]
OC[C@H]1O[C@@H](n2c(O)nc3c(O)ncnc32)C[C@@H]1O [8ho′dI, 8-hydroxy-hypoxanthine deoxyribonucleoside] | 1280 µM | > (no toxicity could be detected at the highest analogue concentration, 1280 microM) | > (no toxicity could be detected at the highest analogue concentration, 1280 microM) | > (no toxicity could be detected at the highest analogue concentration, 1280 microM) | > (no toxicity could be detected at the highest analogue concentration, 1280 microM) | 1280 µM (≈ 343 µg/mL) | > (no toxicity could be detected at the highest analogue concentration, 1280 microM) | > (no toxicity could be detected at the highest analogue concentration, 1280 microM) | 1280 µM (≈ 343 µg/mL) | > (no toxicity could be detected at the highest analogue concentration, 1280 microM) | > (no toxicity could be detected at the highest analogue concentration, 1280 microM) | > (no toxicity could be detected at the highest analogue concentration, 1.28 mM) | > (no toxicity could be detected at the highest analogue concentration, 1.28 mM) | – | – | –
Nc1nc(O)nc2c1ncn2[C@H]1C[C@H](O)[C@@H](CO)O1 [disoG, 2-hydroxy-6-amino-9-(2′-deoxy-β-D-ribofuranosyl)purine] | – | > (no toxicity could be detected at the highest analogue concentration, 1280 microM) | > (no toxicity could be detected at the highest analogue concentration, 1280 microM) | > (no toxicity could be detected at the highest analogue concentration, 1280 microM) | > (no toxicity could be detected at the highest analogue concentration, 1280 microM) | > (no toxicity could be detected at the highest analogue concentration, 1280 microM) | > (no toxicity could be detected at the highest analogue concentration, 1280 microM) | > (no toxicity could be detected at the highest analogue concentration, 1280 microM) | > (no toxicity could be detected at the highest analogue concentration, 1280 microM) | > (no toxicity could be detected at the highest analogue concentration, 1280 microM) | > (no toxicity could be detected at the highest analogue concentration, 1280 microM) | > (no toxicity could be detected at the highest analogue concentration, 1.28 mM) | > (no toxicity could be detected at the highest analogue concentration, 1.28 mM) | ~10^−8 | 4/4 | –
NNc1ccn([C@H]2C[C@H](O)[C@@H](CO)O2)c(=O)n1 [amino-dC, N4-amino-2′-deoxycitidine] | 20 µM | > (no toxicity could be detected at the highest analogue concentration, 1280 microM) | 80 µM (≈ 19.4 µg/mL) | ≦1.25 microM | 320 µM (≈ 77.5 µg/mL) | 640 µM (≈ 155 µg/mL) | 80 µM (≈ 19.4 µg/mL) | > (no toxicity could be detected at the highest analogue concentration, 1280 microM) | > (no toxicity could be detected at the highest analogue concentration, 1280 microM) | > (no toxicity could be detected at the highest analogue concentration, 1280 microM) | 5 µM (≈ 1.21 µg/mL) | > (no toxicity could be detected at the highest analogue concentration, 1.28 mM) | 20 µM | – | – | 2.5 µM
